Reference: patent US20100267561A1, “HERBICIDAL PYRIDAZINONE DERIVATIVES” (priority 2007, published 2010)

Assays:
Assay type in all cases: in vivo
[1] = tested on: lambsquarters (Chenopodium album); test: Test B pre-/postemergence plant response; conditions: for Lambsquarters plant response rating: 8 g ai/ha
Source text: (§1) Seeds of plant species selected from blackgrass (Alopecurus myosuroides), downy bromegrass (Bromus tectorum), green foxtail (Setaria viridis), Italian ryegrass (Lolium multiflorum), wheat (Triticum aestivum), wild oat (Avena fatua), catchweed bedstraw (Galium aparine), bermudagrass (Cynodon dactylon), surinam grass (Brachiaria decumbens), cocklebur (Xanthium strumarium), corn (Zea mays), large crabgrass (Digitaria sanguinalis), woolly cupgrass (Eriochloa villosa), giant foxtail (Setaria faberii), goosegrass (Eleusine indica), johnsongrass (Sorghum halepense), kochia (Kochia scoparia), lambsquarters (Chenopodium album), morningglory (Ipomoea coccinea), eastern black (E.B.) nightshade (Solanum ptycanthum), yellow nutsedge (Cyperus esculentus), pigweed (Amaranthus retroflexus), common ragweed (Ambrosia elation), Russian thistle (Salsola iberica), soybean (Glycine max), common (oilseed) sunflower (Helianthus annuus), and velvetleaf (Abutilon theophrasti) were planted and treated preemergence with test chemicals formulated in a non-phytotoxic solvent mixture which included a surfactant.
(§2) At the same time, plants selected from these crop and weed species and also winter barley (Hordeum vulgare), canarygrass (Phalaris minor), chickweed (Stellaria media) and windgrass (Apera spica-venti) were treated with postemergence applications of some of the test chemicals formulated in the same manner. Plants ranged in height from 2 to 18 cm (1- to 4-leaf stage) for postemergence treatments.
(§3) Plant species in the flooded paddy test consisted of rice (Oryza sativa), umbrella sedge (Cyperus difformis), ducksalad (Heteranthera limosa) and barnyardgrass (Echinochloa crus-galli) grown to the 2-leaf stage for testing. At time of treatment, test pots were flooded to 3 cm above the soil surface, treated by application of test compounds directly to the paddy water, and then maintained at that water depth for the duration of the test. Treated plants and controls were maintained in a greenhouse for 13 to 15 days, after which time all species were compared to controls and visually evaluated. Plant response ratings, summarized in Table B, are based on a scale of 0 to 100 where 0 is no effect and 100 is complete control. A dash (-) response means no test result.

[2] = tested on: morningglory (Ipomoea coccinea); test: Test B pre-/postemergence plant response; conditions: for Morningglory plant response rating: 8 g ai/ha
Source text: as §1, §2, §3

[3] = tested on: blackgrass (Alopecurus myosuroides); test: Test B pre-/postemergence plant response; conditions: for Blackgrass plant response rating: 8 g ai/ha
Source text: as §1, §2, §3

[4] = tested on: velvetleaf (Abutilon theophrasti); test: Test A pre-/postemergence plant response
Procedure, shortened: (§4)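 Ratings run 0–100 (100 = complete control), assigned visually against untreated controls roughly 10 days after treatment in a greenhouse. Compounds, formulated in non-phytotoxic solvent containing surfactant, were applied as a soil-directed preemergence spray and concurrently postemergence to one- to two-leaf plants 2–10 cm tall.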

[5] = tested on: large crabgrass (Digitaria sanguinalis); test: Test A pre-/postemergence plant response
Procedure, shortened: as §4

[6] = tested on: barnyardgrass (Echinochloa crus-galli); test: Test A pre-/postemergence plant response
Procedure, shortened: as §4

corn (Zea mays) = test: Test A pre-/postemergence plant response
Procedure, shortened: as §4

[7] = tested on: giant foxtail (Setaria faberi); test: Test A pre-/postemergence plant response
Procedure, shortened: as §4

[8] = tested on: wheat (Triticum aestivum); test: Test A pre-/postemergence plant response
Procedure, shortened: as §4

[9] = tested on: pigweed (Amaranthus retroflexus); test: Test A pre-/postemergence plant response
Procedure, shortened: as §4

[10] = tested on: morningglory (Ipomoea coccinea); test: Test A pre-/postemergence plant response
Procedure, shortened: as §4

[11] = Postemergence, 16 g ai/ha, scale 0 to 100
[12] = Postemergence, 31 g ai/ha, scale 0 to 100, 0 no effect, 100 complete control
[13] = Postemergence, 62 g ai/ha, scale 0 to 100, 0 no effect, 100 complete control
[14] = Preemergence, 16 g ai/ha, scale 0 to 100 (0 no effect, 100 complete control)
[15] = Preemergence, 31 g ai/ha, 0 to 100 scale, 0 no effect, 100 complete control
[16] = Preemergence, 62 g ai/ha, scale 0 to 100
[17] = Postemergence, 31 g ai/ha, 0 to 100 scale, 0 no effect, 100 complete control
[18] = Postemergence, 125 g ai/ha, 0 to 100 scale, 0 no effect, 100 complete control
[19] = Preemergence, 31 g ai/ha, 0 to 100 scale, 0 is no effect, 100 is complete control
[20] = Preemergence, 125 g ai/ha, 0 to 100 scale (0 no effect, 100 complete control)

Question: For CCCc1cc(-c2ccc(Cl)cc2)nn1-c1c(O)cnn(C)c1=O [Compound 43], which “Lambsquarters plant response rating” value ([1]; postemergence, 0-100 scale) is on record?
Answer: 0

Question: And the “Plant response rating, Lambsquarters” value [1, 11]?
Answer: 0

Question: And the “Plant response rating, Lambsquarters” value [1, 12]?
Answer: 0

Question: What about the “Plant response rating, Lambsquarters” value [1, 13] of the same molecule?
Answer: 0

Question: What about the “Plant response rating, Lambsquarters” value [1, 14] of the same molecule?
Answer: 0

Question: And the “Plant response rating, Lambsquarters” value [1, 15]?
Answer: 0

Question: And the “Plant response rating, Lambsquarters” value [1, 16]?
Answer: 0

Question: And the “Lambsquarters plant response rating” value ([1]; Preemergence, scale 0 to 100)?
Answer: 0

Question: And the “Morningglory plant response rating” value ([2]; postemergence, 0-100 scale)?
Answer: 0

Question: And the “Plant response rating, Morningglory” value [2, 11]?
Answer: 0

Question: What about the “Plant response rating, Morningglory” value [2, 12] of the same molecule?
Answer: 0

Question: And the “Plant response rating, Morningglory” value [2, 13]?
Answer: 0

Question: What about the “Plant response rating, Morningglory” value [2, 14] of the same molecule?
Answer: 0

Question: And the “Plant response rating, Morningglory” value ([2]; Preemergence, 31 g ai/ha, scale 0 to 100 (0 no effect, 100 complete control))?
Answer: 0

Question: What about the “Plant response rating, Morningglory” value [2, 16] of the same molecule?
Answer: 0

Question: What about the “Morningglory plant response rating” value ([2]; Preemergence, scale 0 to 100) of the same molecule?
Answer: 0

Question: And the “Blackgrass plant response rating” value ([3]; postemergence, 0-100 scale)?
Answer: 85

Question: And the “Plant response rating, Blackgrass” value [3, 11]?
Answer: 85

Question: What about the “Plant response rating, Blackgrass” value [3, 12] of the same molecule?
Answer: 95

Question: What about the “Plant response rating, Blackgrass” value [3, 13] of the same molecule?
Answer: 100

Question: And the “Plant response rating, Blackgrass” value [3, 14]?
Answer: 95

Question: And the “Plant response rating, Blackgrass” value [3, 15]?
Answer: 100

Question: And the “Plant response rating, Blackgrass” value [3, 16]?
Answer: 100

Question: And the “Blackgrass plant response rating” value ([3]; Preemergence, scale 0 to 100)?
Answer: 70

Question: And the “Plant response rating, Velvetleaf” value [4, 17]?
Answer: 0

Question: What about the “Plant response rating, Velvetleaf” value [4, 18] of the same molecule?
Answer: 0

Question: And the “Plant response rating, Velvetleaf” value [4, 19]?
Answer: 0

Question: And the “Plant response rating, Velvetleaf” value [4, 20]?
Answer: 0

Question: What about the “Plant response rating, Crabgrass, Large” value [5, 17] of the same molecule?
Answer: 40

Question: And the “Plant response rating, Crabgrass, Large” value [5, 18]?
Answer: 90

Question: What about the “Plant response rating, Crabgrass, Large” value [5, 19] of the same molecule?
Answer: 10

Question: What about the “Plant response rating, Crabgrass, Large” value [5, 20] of the same molecule?
Answer: 90

Question: What about the “Plant response rating, Barnyardgrass” value [6, 17] of the same molecule?
Answer: 90

Question: And the “Plant response rating, Barnyardgrass” value [6, 18]?
Answer: 100

Question: What about the “Plant response rating, Barnyardgrass” value [6, 19] of the same molecule?
Answer: 100

Question: What about the “Plant response rating, Barnyardgrass” value [6, 20] of the same molecule?
Answer: 100

Question: And the “Plant response rating, Corn” value (corn (Zea mays); [17])?
Answer: 50

Question: And the “Plant response rating, Corn” value (corn (Zea mays); [18])?
Answer: 80

Question: And the “Plant response rating, Corn” value (corn (Zea mays); [19])?
Answer: 0

Question: What about the “Plant response rating, Corn” value (corn (Zea mays); [20]) of the same molecule?
Answer: 90

Question: And the “Plant response rating, Foxtail, Giant” value [7, 17]?
Answer: 80

Question: What about the “Plant response rating, Foxtail, Giant” value [7, 18] of the same molecule?
Answer: 100

Question: What about the “Plant response rating, Foxtail, Giant” value [7, 19] of the same molecule?
Answer: 90

Question: And the “Plant response rating, Foxtail, Giant” value [7, 20]?
Answer: 100

Question: And the “Plant response rating, Wheat” value [8, 17]?
Answer: 40

Question: And the “Plant response rating, Wheat” value [8, 18]?
Answer: 80

Question: What about the “Plant response rating, Wheat” value [8, 19] of the same molecule?
Answer: 20

Question: And the “Plant response rating, Wheat” value [8, 20]?
Answer: 70

Question: What about the “Plant response rating, Pigweed” value [9, 17] of the same molecule?
Answer: 0

Question: And the “Plant response rating, Pigweed” value [9, 18]?
Answer: 0

Question: What about the “Plant response rating, Pigweed” value [9, 19] of the same molecule?
Answer: 0

Question: And the “Plant response rating, Pigweed” value [9, 20]?
Answer: 0

Question: And the “Plant response rating, Morningglory” value [10, 17]?
Answer: 0

Question: And the “Plant response rating, Morningglory” value [10, 18]?
Answer: 0

Question: What about the “Plant response rating, Morningglory” value [10, 19] of the same molecule?
Answer: 0

Question: What about the “Plant response rating, Morningglory” value [10, 20] of the same molecule?
Answer: 0
